Results published in the supplement of paper PMC11451515.

Test system: P12-Ichikawa
Assay: cell viability relative to DMSO control; higher = less cytotoxic
Conditions: 48 h
Method in brief: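 In 1536-well plates, 5 μl of leukemia cells were seeded per well: 500 cells/well for NOMO1 or SEM and 1000 cells/well for P12-Ichikawa. Each line had first been adapted for at least four passages in each medium. Library compounds in DMSO were pin-dosed at 11 threefold concentrations between 47 μM and 0.79 nM, and CellTiter-Glo One luminescence was read after 48 h at 37°C. Viability is a per-plate percentage relative to DMSO wells, with cell-free wells as background.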

[1] = HPLM + 10% dialyzed FBS, 0.000781 µM
[2] = HPLM + 10% dialyzed FBS, 0.00234 µM
[3] = HPLM + 10% dialyzed FBS, 0.00702 µM
[4] = HPLM + 10% dialyzed FBS, 0.0211 µM
[5] = HPLM + 10% dialyzed FBS, 0.0632 µM
[6] = HPLM + 10% dialyzed FBS, 0.19 µM
[7] = HPLM + 10% dialyzed FBS, 0.569 µM
[8] = HPLM + 10% dialyzed FBS, 1.71 µM
[9] = HPLM + 10% dialyzed FBS, 5.12 µM
[10] = HPLM + 10% dialyzed FBS, 15.4 µM
[11] = HPLM + 10% dialyzed FBS, 46.1 µM
[12] = RPMI 5 mM glucose + 10% FBS, 0.000781 µM
[13] = RPMI 5 mM glucose + 10% FBS, 0.00234 µM
[14] = RPMI 5 mM glucose + 10% FBS, 0.00702 µM
[15] = RPMI 5 mM glucose + 10% FBS, 0.0211 µM
[16] = RPMI 5 mM glucose + 10% FBS, 0.0632 µM
[17] = RPMI 5 mM glucose + 10% FBS, 0.19 µM
[18] = RPMI 5 mM glucose + 10% FBS, 0.569 µM
[19] = RPMI 5 mM glucose + 10% FBS, 1.71 µM
[20] = RPMI 5 mM glucose + 10% FBS, 5.12 µM
[21] = RPMI 5 mM glucose + 10% FBS, 15.4 µM
[22] = RPMI 5 mM glucose + 10% FBS, 46.1 µM
[23] = RPMI 5 mM glucose + 10% dialyzed FBS, 0.000781 µM
[24] = RPMI 5 mM glucose + 10% dialyzed FBS, 0.00234 µM
[25] = RPMI 5 mM glucose + 10% dialyzed FBS, 0.00702 µM
[26] = RPMI 5 mM glucose + 10% dialyzed FBS, 0.0211 µM
[27] = RPMI 5 mM glucose + 10% dialyzed FBS, 0.0632 µM
[28] = RPMI 5 mM glucose + 10% dialyzed FBS, 0.19 µM
[29] = RPMI 5 mM glucose + 10% dialyzed FBS, 0.569 µM
[30] = RPMI 5 mM glucose + 10% dialyzed FBS, 1.71 µM
[31] = RPMI 5 mM glucose + 10% dialyzed FBS, 5.12 µM
[32] = RPMI 5 mM glucose + 10% dialyzed FBS, 15.4 µM
[33] = RPMI 5 mM glucose + 10% dialyzed FBS, 46.1 µM

COc1cc2nc(N3CCN(C(=O)c4ccco4)CC3)nc(N)c2cc1OC
cell viability [1]: 88.4% | cell viability [2]: 91.4% | cell viability [3]: 95% | cell viability [4]: 102% | cell viability [5]: 99% | cell viability [6]: 93.2% | cell viability [7]: 110% | cell viability [8]: 84.7% | cell viability [9]: 97.1% | cell viability [10]: 55.1% | cell viability [11]: 4.81% | cell viability [12]: 84.1% | cell viability [13]: 88.8% | cell viability [14]: 97.8% | cell viability [15]: 91.6% | cell viability [16]: 98.2% | cell viability [17]: 103% | cell viability [18]: 87% | cell viability [19]: 95% | cell viability [20]: 91.2% | cell viability [21]: 98.9% | cell viability [22]: 5.43% | cell viability [23]: 77.1% | cell viability [24]: 74.4% | cell viability [25]: 91% | cell viability [26]: 80.1% | cell viability [27]: 90.7% | cell viability [28]: 85.3% | cell viability [29]: 93.5% | cell viability [30]: 89.1% | cell viability [31]: 90.1% | cell viability [32]: 95.1% | cell viability [33]: 5.58%

COCCNCCCn1c(C(=O)CF)c(-c2ccc(C)cc2)c2c(N)ncnc21
cell viability [1]: 108% | cell viability [2]: 95.8% | cell viability [3]: 104% | cell viability [4]: 102% | cell viability [5]: 111% | cell viability [6]: 103% | cell viability [7]: 102% | cell viability [8]: 95.1% | cell viability [9]: 85.3% | cell viability [10]: 94.5% | cell viability [11]: 87.2% | cell viability [12]: 118% | cell viability [13]: 100% | cell viability [14]: 108% | cell viability [15]: 103% | cell viability [16]: 107% | cell viability [17]: 104% | cell viability [18]: 101% | cell viability [19]: 103% | cell viability [20]: 104% | cell viability [21]: 96.7% | cell viability [22]: 91.7% | cell viability [23]: 103% | cell viability [24]: 96.7% | cell viability [25]: 116% | cell viability [26]: 98% | cell viability [27]: 106% | cell viability [28]: 101% | cell viability [29]: 105% | cell viability [30]: 89.8% | cell viability [31]: 94.7% | cell viability [32]: 83.7% | cell viability [33]: 72.2%

OC[C@H]1O[C@H](C[C@@H]1O)N2\C=C(\I)C(=O)NC2=O
cell viability [1]: 113% | cell viability [2]: 114% | cell viability [3]: 120% | cell viability [4]: 118% | cell viability [5]: 115% | cell viability [6]: 124% | cell viability [7]: 119% | cell viability [8]: 115% | cell viability [9]: 98.2% | cell viability [10]: 64.4% | cell viability [11]: 58.3% | cell viability [12]: 110% | cell viability [13]: 114% | cell viability [14]: 124% | cell viability [15]: 121% | cell viability [16]: 129% | cell viability [17]: 128% | cell viability [18]: 132% | cell viability [19]: 123% | cell viability [20]: 115% | cell viability [21]: 106% | cell viability [22]: 96.7% | cell viability [23]: 118% | cell viability [24]: 114% | cell viability [25]: 108% | cell viability [26]: 119% | cell viability [27]: 114% | cell viability [28]: 131% | cell viability [29]: 127% | cell viability [30]: 115% | cell viability [31]: 114% | cell viability [32]: 114% | cell viability [33]: 110%

COC(=O)Nc1nc2cc(Sc3ccccc3)ccc2[nH]1
cell viability [1]: 124% | cell viability [2]: 115% | cell viability [3]: 119% | cell viability [4]: 108% | cell viability [5]: 112% | cell viability [6]: 114% | cell viability [7]: 111% | cell viability [8]: 96% | cell viability [9]: 19.5% | cell viability [10]: 25.2% | cell viability [11]: 31.8% | cell viability [12]: 112% | cell viability [13]: 113% | cell viability [14]: 118% | cell viability [15]: 111% | cell viability [16]: 113% | cell viability [17]: 124% | cell viability [18]: 115% | cell viability [19]: 97.6% | cell viability [20]: 16.8% | cell viability [21]: 29.3% | cell viability [22]: 28.7% | cell viability [23]: 101% | cell viability [24]: 109% | cell viability [25]: 120% | cell viability [26]: 114% | cell viability [27]: 113% | cell viability [28]: 111% | cell viability [29]: 102% | cell viability [30]: 90% | cell viability [31]: 24.5% | cell viability [32]: 30.4% | cell viability [33]: 35.5%

O=C(O)C(=O)Nc1cccc(-c2nnn[nH]2)c1
cell viability [1]: 101% | cell viability [2]: 94.9% | cell viability [3]: 103% | cell viability [4]: 108% | cell viability [5]: 108% | cell viability [6]: 106% | cell viability [7]: 105% | cell viability [8]: 106% | cell viability [9]: 112% | cell viability [10]: 112% | cell viability [11]: 111% | cell viability [12]: 109% | cell viability [13]: 111% | cell viability [14]: 106% | cell viability [15]: 112% | cell viability [16]: 126% | cell viability [17]: 107% | cell viability [18]: 113% | cell viability [19]: 114% | cell viability [20]: 108% | cell viability [21]: 116% | cell viability [22]: 107% | cell viability [23]: 100% | cell viability [24]: 105% | cell viability [25]: 106% | cell viability [26]: 108% | cell viability [27]: 107% | cell viability [28]: 106% | cell viability [29]: 100% | cell viability [30]: 105% | cell viability [31]: 98.4% | cell viability [32]: 105% | cell viability [33]: 102%

NC(=O)[C@@H](CCC(F)(F)F)N(Cc1ccc(-c2ncon2)cc1F)[S+](=O)([O-])c1ccc(Cl)cc1
cell viability [1]: 105% | cell viability [2]: 98.7% | cell viability [3]: 98.7% | cell viability [4]: 103% | cell viability [5]: 92.4% | cell viability [6]: 96.2% | cell viability [7]: 96.1% | cell viability [8]: 89.4% | cell viability [9]: 87.1% | cell viability [10]: 80% | cell viability [11]: 5.81% | cell viability [12]: 92.4% | cell viability [13]: 95% | cell viability [14]: 84.6% | cell viability [15]: 101% | cell viability [16]: 100% | cell viability [17]: 88.8% | cell viability [18]: 86.3% | cell viability [19]: 90.3% | cell viability [20]: 81.6% | cell viability [21]: 80.9% | cell viability [22]: 58% | cell viability [23]: 94.6% | cell viability [24]: 88.2% | cell viability [25]: 96.5% | cell viability [26]: 92.3% | cell viability [27]: 92.8% | cell viability [28]: 87.3% | cell viability [29]: 81.7% | cell viability [30]: 84.8% | cell viability [31]: 83.8% | cell viability [32]: 84.2% | cell viability [33]: 6.79%

Cc1nc(C(=O)NCC(=O)O)c(O)c2ccc(Oc3ccccc3)cc12
cell viability [1]: 111% | cell viability [2]: 97.3% | cell viability [3]: 107% | cell viability [4]: 105% | cell viability [5]: 113% | cell viability [6]: 91.4% | cell viability [7]: 98.4% | cell viability [8]: 99.5% | cell viability [9]: 94.8% | cell viability [10]: 102% | cell viability [11]: 98.7% | cell viability [12]: 107% | cell viability [13]: 111% | cell viability [14]: 115% | cell viability [15]: 105% | cell viability [16]: 110% | cell viability [17]: 102% | cell viability [18]: 110% | cell viability [19]: 101% | cell viability [20]: 103% | cell viability [21]: 99.2% | cell viability [22]: 85.5% | cell viability [23]: 99.4% | cell viability [24]: 101% | cell viability [25]: 102% | cell viability [26]: 104% | cell viability [27]: 101% | cell viability [28]: 98.8% | cell viability [29]: 101% | cell viability [30]: 94.8% | cell viability [31]: 96.9% | cell viability [32]: 93.6% | cell viability [33]: 77%

CN1C(=O)\C(=C/C2=C1N=C(NC3CCOCC3)N=C2)OC4=C(F)C=C(F)C=C4
cell viability [1]: 92.5% | cell viability [2]: 96.2% | cell viability [3]: 95.4% | cell viability [4]: 95.3% | cell viability [5]: 96.9% | cell viability [6]: 90.2% | cell viability [7]: 87.5% | cell viability [8]: 93.2% | cell viability [9]: 82.6% | cell viability [10]: 87.2% | cell viability [11]: 50.7% | cell viability [12]: 92.3% | cell viability [13]: 90.3% | cell viability [14]: 93.5% | cell viability [15]: 95.2% | cell viability [16]: 96.1% | cell viability [17]: 96.6% | cell viability [18]: 91.8% | cell viability [19]: 90% | cell viability [20]: 90.5% | cell viability [21]: 90.4% | cell viability [22]: 39.4% | cell viability [23]: 100% | cell viability [24]: 94.7% | cell viability [25]: 90.6% | cell viability [26]: 87.1% | cell viability [27]: 96.3% | cell viability [28]: 99.1% | cell viability [29]: 93.5% | cell viability [30]: 86.7% | cell viability [31]: 79.3% | cell viability [32]: 81.8% | cell viability [33]: 35.9%
